Source: patent US8110573B2, “Pyrazole compounds that modulate the activity of CDK, GSK and aurora kinases” (Astex Therapeutics Limited, priority 2004, dated 2012)
Where a name gives a salt, the structure may show the parent alone.

Experiments:
CDK2/CyclinA = CDK2/CyclinA (Homo sapiens, UniProt P24941); test: Activated CDK2/CyclinA kinase inhibitory activity assay; type: biochemical
Protocol: (§1) The reaction is allowed to proceed for 2 to 4 hours before being stopped with an excess of ortho-phosphoric acid (5 μl at 2%). γ^33P-ATP which remains unincorporated into the histone H1 is separated from phosphorylated histone H1 on a Millipore MAPH filter plate. The wells of the MAPH plate are wetted with 0.5% orthophosphoric acid, and then the results of the reaction are filtered with a Millipore vacuum filtration unit through the wells. Following filtration, the residue is washed twice with 200 μl of 0.5% orthophosphoric acid. Once the filters have dried, 20 μl of Microscint 20 scintillant is added, and then counted on a Packard Topcount for 30 seconds.

CDK1/CyclinB = target: T1, CDK1/CyclinB (Homo sapiens, UniProt P06493); test: Activated CDK1/CyclinB kinase inhibitory activity assay; type: biochemical
T1 construct: purchased Upstate Discovery
Protocol: as §1
CDK1/CyclinB assay is identical to the CDK2/CyclinA above except that CDK1/CyclinB (Upstate Discovery) is used and the enzyme is diluted to 6.25 nM.

HCT-116 cell line = test: Anti-proliferative activity (Alamar Blue assay); type: cell-based, human
Protocol: The anti-proliferative activities of compounds of the invention can be determined by measuring the ability of the compounds to inhibition of cell growth in a number of cell lines. Inhibition of cell growth is measured using the Alamar Blue assay (Nociari, M. M, Shalev, A., Benias, P., Russo, C. Journal of Immunological Methods 1998, 213, 157-167). The method is based on the ability of viable cells to reduce resazurin to its fluorescent product resorufin. For each proliferation assay cells are plated onto 96 well plates and allowed to recover for 16 hours prior to the addition of inhibitor compounds for a further 72 hours. At the end of the incubation period 10% (v/v) Alamar Blue is added and incubated for a further 6 hours prior to determination of fluorescent product at […]. In the case of the non-proliferating cell assay cells are maintained at confluence for 96 hour prior to the addition of inhibitor compounds for a further 72 hours. The number of viable cells is determined by Alamar Blue assay as before. In addition, any morphological changes are recorded. Cell lines can be obtained from the ECACC (European Collection of cell Cultures).
In particular, compounds of the invention were tested against the HCT-116 cell line (ECACC Reference: 91091005) derived from human colon carcinoma.

[1] = Salt stability at 40° C. 75% RH followed by XRPD; type: physicochemical; settings: 40° C. and 75% RH over the period of 1-2 month
Protocol: Approximately 15 mg of samples for the stability study were gently ground by marble mortar and transferred to a Petri dish in a thin layer. Samples were then placed in sealed containers containing saturated NaCl solution with an excess of undissolved NaCl. […] Samples were analysed by X-ray powder diffraction (XRPD) in regular intervals. Samples for XRPD data collection were loaded into crystallographic capillary (from Hampton Research, made of Quartz, diameter=0.4 mm). […] 2D Images were collected while spinning φ axis with a detector to crystal distance of 250 mm. Data collection was controlled by CrystalClear software and 2D images were converted to 1D plot (2θ vs. Intensity) by Datasqueeze (intensity averaged over the azimuthal angle 0<χ<360° for 2θ range 3-30° in 0.01° steps).

physchem = settings: water, thermodynamic from solid
[2] = Gravimetric vapour sorption (GVS); type: physicochemical; settings: 0-90% RH cycle, 25° C.
Protocol: The sample size was ca. 10-25 mg. […] The sample was loaded and unloaded at room humidity and temperature (ca. 40% RH, 25° C.) and analysed afterwards by XRPD (using a Bruker AXS C2 GADDS system).

T1 sequence (P06493 whole entry): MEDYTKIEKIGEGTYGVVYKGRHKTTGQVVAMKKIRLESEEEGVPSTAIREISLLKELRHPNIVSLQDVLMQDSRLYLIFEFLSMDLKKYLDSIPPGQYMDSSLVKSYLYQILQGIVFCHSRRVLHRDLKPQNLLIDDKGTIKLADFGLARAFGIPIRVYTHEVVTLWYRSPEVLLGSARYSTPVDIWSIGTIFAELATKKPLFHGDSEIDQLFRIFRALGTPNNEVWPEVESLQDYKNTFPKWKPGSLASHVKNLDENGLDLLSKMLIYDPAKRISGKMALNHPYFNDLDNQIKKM
T1 sequence (P14635 whole entry partner): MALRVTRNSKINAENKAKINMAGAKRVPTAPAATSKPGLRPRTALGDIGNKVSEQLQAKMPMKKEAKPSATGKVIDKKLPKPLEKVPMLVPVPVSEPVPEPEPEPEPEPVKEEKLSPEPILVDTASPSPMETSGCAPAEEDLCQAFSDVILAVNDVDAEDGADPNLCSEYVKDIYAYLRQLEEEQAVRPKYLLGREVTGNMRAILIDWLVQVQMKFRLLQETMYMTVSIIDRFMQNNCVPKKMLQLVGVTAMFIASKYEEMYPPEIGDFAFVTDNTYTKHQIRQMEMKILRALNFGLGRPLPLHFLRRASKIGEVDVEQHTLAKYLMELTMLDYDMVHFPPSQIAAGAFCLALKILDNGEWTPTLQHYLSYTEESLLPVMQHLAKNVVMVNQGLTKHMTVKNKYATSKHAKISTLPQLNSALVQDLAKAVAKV

Row | SMILES | IC50 (CDK2/CyclinA) | IC50 (CDK1/CyclinB) | other results
1 | O=C(CC1CC1)Nc1c[nH]nc1-c1nc2cc(CN3CCOCC3)ccc2[nH]1 [Example 10] | < 1 µM | < 1 µM | 
2 | O=C(Nc1c[nH]nc1-c1nc2cc(CN3CCOCC3)ccc2[nH]1)C1CCCO1 (stereo not shown) [Example 11] | < 1 µM | < 1 µM | 
3 | COc1cc2nc(-c3n[nH]cc3NC(=O)c3ccoc3CN(C)C)[nH]c2cc1OC [Example 20] | < 1 µM | < 10 µM | 
4 | O=C(Nc1c[nH]nc1-c1nc2cc(CN3CCOCC3)ccc2[nH]1)NC1CC1 [Example 24, 1-cyclopropyl-3-[3-(5-morpholin-4-ylmethyl-1H-benzoimidazol-2-yl)-1H-pyrazol-4-yl]-urea] |  | < 10 µM | minimum concentration at which polyploidy or multinucleation is observed (HCT-116 cell line; HCT-116 cell line): less than 100 nM; IC50 (HCT-116 cell line; Homo sapiens, HCT-116, 72 hours compound, Alamar Blue, read-out: IC50, inhibition of cell growth, HCT-116 cell line): < 1 µM; change of XRPD pattern on storage [1]: do not change
5 | O=C(Nc1c[nH]nc1-c1nc2cc(CN3CCOCC3)ccc2[nH]1)NN1CCCC1 [Example 30] | < 1 µM |  | 
6 | O=C(Nc1c[nH]nc1-c1nc2cc(CN3CCOCC3)ccc2[nH]1)NN1CCOCC1 [Example 32] | < 1 µM | < 10 µM | 
7 | CC(C)(C)NC(=O)Nc1c[nH]nc1-c1nc2cc(CN3CCOCC3)ccc2[nH]1 [Example 45] | < 10 µM | < 10 µM | 
8 | O=C(Nc1c[nH]nc1-c1nc2cc(CN3CCOCC3)ccc2[nH]1)NC1CCCCC1 [Example 51] | < 10 µM | < 10 µM | 
9 | O=C(Nc1cc(F)cc(F)c1)Nc1c[nH]nc1-c1nc2cc(CN3CCOCC3)ccc2[nH]1 [Example 53] | < 10 µM | < 10 µM | 
10 | O=C(Nc1c[nH]nc1-c1nc2cc(CN3CCOCC3)ccc2[nH]1)Nc1c(F)cc(F)cc1F [Example 54] | < 1 µM | < 1 µM | 
11 | O=C(Nc1c[nH]nc1-c1nc2cc(CN3CCOCC3)ccc2[nH]1)NC1CC1 [Hydrochloride, 1-cyclopropyl-3-[3-(5-morpholin-4-ylmethyl-1H-benzoimidazol-2-yl)-1H-pyrazol-4-yl]-urea] |  |  | solubility at 16 h (physchem): < 25 mg/mL
12 | C[C@H](O)C(=O)O.O=C(Nc1c[nH]nc1-c1nc2cc(CN3CCOCC3)ccc2[nH]1)NC1CC1 [L-lactate salt, 1-cyclopropyl-3-[3-(5-morpholin-4-ylmethyl-1H-benzoimidazol-2-yl)-1H-pyrazol-4-yl]-urea, L-lactate salt] |  |  | hygroscopic behaviour (GVS isotherm) [2]: does not display hygroscopic behaviour and does not form a hydrate; change of XRPD pattern on storage [1]: do not change
13 | O.O.O=C(Nc1c[nH]nc1-c1nc2cc(CN3CCOCC3)ccc2[nH]1)NC1CC1 [dihydrate free base (FB2), 1-cyclopropyl-3-[3-(5-morpholin-4-ylmethyl-1H-benzoimidazol-2-yl)-1H-pyrazol-4-yl]-urea free base dihydrate] |  |  | change of XRPD pattern on storage [1]: do not change

Continued, in another order:

Row | IC50 (CDK2/CyclinA) | IC50 (CDK1/CyclinB) | SMILES | other results
14 | < 1 µM | < 1 µM | COc1ccc(C#N)cc1C(=O)Nc1c[nH]nc1-c1nc2cc(CN3CCOCC3)ccc2[nH]1 [Example 1, 5-cyano-2-methoxy-N-[3-(5-morpholin-4-ylmethyl-1H-benzoimidazol-2-yl)-1H-pyrazol-4-yl]-benzamide] | 
15 | < 1 µM |  | COc1cc2nc(-c3n[nH]cc3NC(=O)c3cc(Cl)cc(N4CCN(C)CC4)c3)[nH]c2cc1OC [Example 18, 3-chloro-N-(5,6-dimethoxy-1H-benzoimidazol-2-yl)-1H-pyrazol-4-yl-5-(4-methyl-piperazin-1-yl)-benzamide] | 
16 | < 1 µM | < 1 µM | COc1ccc(Cl)cc1C(=O)Nc1c[nH]nc1-c1nc2cc(CN3CCN(C)CC3)ccc2[nH]1 [Example 22, 5-chloro-2-methoxy-N-{3-[5-(4-methyl-piperazin-1-ylmethyl)-1H-benzoimidazol-2-yl]-1H-pyrazol-4-yl}-benzamide] | 
17 | < 1 µM | < 10 µM | CN(C)NC(=O)Nc1c[nH]nc1-c1nc2cc(CN3CCOCC3)ccc2[nH]1 [Example 31] | 
18 | < 10 µM |  | O=C(Nc1ccc(F)cc1)Nc1c[nH]nc1-c1nc2cc(CN3CCOCC3)ccc2[nH]1 [Example 44, 1-(4-fluorophenyl)-N-[3-(5-morpholin-4-ylmethyl-1H-benzimidazol-2-yl)-1H-pyrazol-4-yl]-urea] | 
19 | < 1 µM | < 10 µM | O=C(Nc1ccc(F)cc1F)Nc1c[nH]nc1-c1nc2cc(CN3CCOCC3)ccc2[nH]1 [Example 46] | 
20 | < 1 µM | < 1 µM | O=C(Nc1cc(F)ccc1F)Nc1c[nH]nc1-c1nc2cc(CN3CCOCC3)ccc2[nH]1 [Example 47] | 
